Several values for one entry are separate records, joined by “and”; a condition that tells them apart may be missing. Equal values may be shown once.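 Compound exposure: 48 hours, 5 concentrations, 96-well plates. GI50 = concentration required for 50% inhibition of growth. TGI marks complete inhibition of growth.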
What was measured:
Assay in all cases: NCI tumour cell line growth inhibition, 48 h
MCF7 breast = system: MCF7 breast
NCI/ADR-RES ovarian = system: NCI/ADR-RES ovarian
HS 578T breast = system: HS 578T breast
T-47D breast = system: T-47D breast
MDA-MB-435 = system: MDA-MB-435

Structure (SMILES) | TGI (MCF7 breast) | TGI (NCI/ADR-RES ovarian) | TGI (HS 578T breast) | TGI (T-47D breast) | TGI (MDA-MB-435) | GI50 (MCF7 breast) | GI50 (NCI/ADR-RES ovarian) | GI50 (HS 578T breast) | GI50 (T-47D breast) | GI50 (MDA-MB-435)
Nc1nc(N)c2ncn(Cc3c(Cl)cccc3Cl)c2n1 | > 100 µM | > 100 µM | > 100 µM | > 100 µM | > 100 µM |  |  |  |  | 
CCc1nc2cc(/C=C/C(=O)NO)c(F)cc2c(=O)n1CCc1ccccc1 | 15.1 µM | 2.54 µM | 45.2 µM | 4.95 µM | 10.2 µM | 0.407 µM | 0.227 µM | 2.95 µM | 0.29 µM | 1.2 µM
c1ccc(CN2CCC3(CC2)ONC2=NCCN23)cc1 | > 100 µM | > 100 µM |  | > 100 µM | > 100 µM | 71.3 µM | 18.2 µM |  | > 100 µM | 91.5 µM
S=C(S)NCCCn1ccnc1 | > 100 µM | > 100 µM |  | > 100 µM | > 100 µM |  |  |  |  | 
COc1ccc(S(=O)(=O)N2CCCCC2)cc1NC(=O)c1[nH]c(C)c2c1CCCCC2=O | > 100 µM | > 100 µM | > 100 µM | 46.9 µM | > 100 µM | 0.666 µM | 3.67 µM | 1.45 µM | 1.41 µM | 2.49 µM
CCCCCCCCCCCCCCCC[N+](C)(C)C | 1.44 µM and 5.2 µM | 6.53 µM and 31.6 µM | 0.984 µM and 5.46 µM | 1.2 µM and 9.59 µM | 0.761 µM | 0.313 µM and 1.86 µM | 1.6 µM and 11.9 µM | 0.269 µM and 1.82 µM | 0.272 µM and 2.56 µM | 0.241 µM
COc1ccccc1NC(=O)N/C(N)=N/c1nc2ccccc2s1 | > 100 µM |  | > 100 µM | > 100 µM | 0.0692 µM | 0.0401 µM | 0.0474 µM | 0.0695 µM | 0.394 µM | 0.0211 µM
COc1cc2c(c(OC)c1OC)C(=O)c1c-2n(CCCN)c(=O)c2cc([N+](=O)[O-])ccc12 |  | 9.98 µM | 4.99 µM | 6.91 µM | 2.4 µM | 0.25 µM | 2.03 µM | 2 µM | 2.48 µM | 1.07 µM
CN(C)c1ccc2c(SCC(=O)OCC(=O)[C@@]3(O)CC[C@H]4[C@@H]5CCC6=CC(=O)C=C[C@]6(C)[C@H]5C(=O)C[C@@]43C)c3ccc(N(C)C)cc3nc2c1 | > 100 µM |  | > 100 µM | > 100 µM | > 72.1 µM |  |  |  |  | 
CC(C)(C)OC(=O)N(CCCn1c2c(c3ccccc3c1=O)C(=O)c1ccccc1-2)CCN(CCCn1c2c(c3ccccc3c1=O)C(=O)c1ccccc1-2)C(=O)OC(C)(C)C | > 50 µM | > 50 µM | > 50 µM | > 50 µM | > 50 µM | 21.3 µM | > 50 µM | 15.8 µM | > 50 µM | > 50 µM
Cc1cc2cc(Oc3ccnc(Nc4cccc(CS(=O)(=O)NCCN(C)C)c4)n3)ccc2[nH]1 | 18.4 µM | 43.6 µM | 29.5 µM | 22.7 µM | 18.4 µM | 4.03 µM | 17.9 µM | 3.17 µM | 4.93 µM | 5.37 µM
CO/N=C(\COc1ccc2c(=O)cc(-c3ccccc3)oc2c1)c1ccc(OC)cc1 |  | > 100 µM | > 100 µM | > 100 µM | > 100 µM |  | > 100 µM | > 100 µM | 53.5 µM | 30 µM

— PubChem BioAssay (NCI)
